The values that follow come from patent publication US11708366B2, “Heteroaryl substituted spiropiperidinyl derivatives and pharmaceutical uses thereof” (Novartis AG, priority 2020, dated 2023).

pIC50: −log10 of the molar value.

Experiment [1] deals with T1, LTC4S (Homo sapiens (Human), UniProt Q16873). The experiment is described as follows: Human LTC4S enzymatic assay (HTRF detection of LTC4-Me). Format: biochemical. On the procedure: A. Human LTC4S Enzymatic Assay:
LTC4 synthase catalyzes the conversion of Leukotriene A4 (LTA4) to Leukotriene C4 (LTC4) in the presence of reduced glutathione (GSH) as a co-substrate. For compound testing, compounds are delivered as 10 mM stock solutions in 90% DMSO in matrix tubes. From this, a 1:3 dilution dose response series is prepared with a starting concentration of 30 μM to 0.1 nM. For the enzymatic assay 97.5 nL of compound/DMSO solution is transferred to each well and 5 μL enzyme solution (assay buffer: 50 mM bis-tris propane pH 7.3, 250 mM NaCl, 10 mM MgCl2, 0.001% MGN3) is added to the wells. […] The enzyme compound mixture is incubated at room temperature for 15 minutes prior to the addition of 5 μL substrate solution. […] A final substrate concentration of 400 μM GSH and 5 μM LTA4-Me is chosen.
The LTA4-Me is obtained commercially in 2% triethylamine/hexane solvent. As this solvent is incompatible with the HTRF assay it has to be exchanged with DMSO according to following procedure: add 50 μL of 100% DMSO to 50 μL LTA4-Me (3 mM) in a 2 mL Eppendorf tube and mix gently by inverting the tube. The triethylamine/hexane is evaporated under a constant argon flux at room temperature. The DMSO-LTA4-Me (3 mM) is aliquoted and stored at −20° C. for not longer than 4 weeks, as it is not stable in DMSO due to its oxidizing properties.
Upon addition of the substrate, the plate is immediately placed on a shaker for 5 min at room temperature. Immediately after the 5 min incubation 5 μL of H2O2 solution is added to all wells to stop the reaction. The plate contents are mixed before the addition of detection reagents. […] For the detection of the product of the enzymatic reaction LTC4-Me, the Cisbio LTC4-HTRF kit is used as the assay is compatible with the detection of LTC4-Me. 5 μL of diluted LTC4-d2 conjugate (according to manufacturer's protocol) are added to all wells of the assay plate and the contents gently mixed and incubated for 5 minutes at room temperature. […] The percent inhibition for each point of an inhibition curve is calculated after data interpolation using the LTC4-Me standard curve, to convert the HTRF signal to the amount of LTC4-Me produced within the LTC4S catalyzed reaction on each plate. The data is analyzed using parametric curve fitting to determine IC50 values of LTC4S inhibitors.
(In general: Time-resolved FRET reads energy transfer from a long-lived donor to a nearby acceptor.)

Experiment [2] deals with T1, LTC4S. The experiment is described as follows: Human whole blood HTRF assay (LTC4 release after calcium ionophore A23187). Conditions: human whole blood diluted 1:3, 4 h incubation, calcium ionophore A23187 stimulation, LTC4 by HTRF; read-out: human whole blood HTRF IC50. Format: cell-based.
Where [3] appears, read: 0.75 nM enzyme, 400 μM GSH, 5 μM LTA4-Me, 15 min pre-incubation, read-out: human LTC4S IC50 (enzymatic assay).

Consider `O=C1CCCC2(CCN(c3ncn(-c4ccc(F)cc4)n3)CC2)N1c1ccc(Cl)c(F)c1` [Example 1, 1-(4-chloro-3-fluorophenyl)-9-(1-(4-fluorophenyl)-1H-1,2,4-triazol-3-yl)-1,9-diazaspiro[5.5]undecan-2-one], for which the pIC50 (as a rule, the negative decadic logarithm of the IC50, by convention in mol/L) is 8.22 on LTC4S [1] (setting [3]) and 7.89 at LTC4S [2].

Regarding `O=C1CCCC2(CCN(c3cccc(-c4ccc(F)cc4)n3)CC2)N1c1ccc(Cl)cc1` [Example 32, 1-(4-chlorophenyl)-9-(6-(4-fluorophenyl)pyridin-2-yl)-1,9-diazaspiro[5.5]undecan-2-one], the pIC50 on LTC4S [1] (setting [3]) was 8.15; on LTC4S [2] it was 6.77.

Turning to `O=C1CCCC2(CCN(c3ccn4nc(C(F)(F)F)cc4n3)CC2)N1c1ccc(Cl)c(F)c1` [Example 5, 1-(4-chloro-3-fluorophenyl)-9-(2-(trifluoromethyl)pyrazolo[1,5-a]pyrimidin-5-yl)-1,9-diazaspiro[5.5]undecan-2-one], the pIC50 at LTC4S [1] (setting [3]) is 8.30; on LTC4S [2], 8.00.

Take `O=C1CCCC2(CCN(c3cc(OCC(F)F)ncn3)CC2)N1c1ccc(Cl)c(F)c1` [Example 84, 1-(4-chloro-3-fluorophenyl)-9-(6-(2,2-difluoroethoxy)pyrimidin-4-yl)-1,9-diazaspiro[5.5]undecan-2-one]: the results for the pIC50 on LTC4S [1] (setting [3]) and on LTC4S [2] were 8.10 and 8.05, respectively.

As to `Cn1cc(-c2ccc(F)cc2)nc(N2CCC3(CCCC(=O)N3c3ccc(Cl)c(F)c3)CC2)c1=O` [Example 9, 1-(4-chloro-3-fluorophenyl)-9-(6-(4-fluorophenyl)-4-methyl-3-oxo-3,4-dihydropyrazin-2-yl)-1,9-diazaspiro[5.5]undecan-2-one], the pIC50 at LTC4S [1] (setting [3]) is 8.70; at LTC4S [2], 7.32.

Consider “1-(4-chloro-3-fluorophenyl)-9-(5-((1R,2R)-2-(trifluoromethyl)cyclopropyl)-1,2,4-oxadiazol-3-yl)-1,9-diazaspiro[5.5]undecan-2-one, or 1-(4-chloro-3-fluorophenyl)-9-(5-((1S,2S)-2-(trifluoromethyl)cyclopropyl)-1,2,4-oxadiazol-3-yl)-1,9-diazaspiro[5.5]undecan-2-one [Example 6a]”, for which the values for the pIC50 on LTC4S [1] (setting [3]) and on LTC4S [2] were 6.72 and 6.51, respectively.

The compound `O=C1CCCC2(CCN(c3nccc(N4CC5(CC5)C4)n3)CC2)N1c1ccc(Cl)c(F)c1` [Example 35b, 9-(4-(5-azaspiro[2.3]hexan-5-yl)pyrimidin-2-yl)-1-(4-chloro-3-fluorophenyl)-1,9-diazaspiro[5.5]undecan-2-one] gave a pIC50 on LTC4S [1] of 8.52.

In the case of `O=C1CCCC2(CCN(c3nc(N4CCCC4)nnc3O)CC2)N1c1ccc(Cl)c(F)c1` [Example 8, 1-(4-chloro-3-fluorophenyl)-9-(6-hydroxy-3-(pyrrolidin-1-yl)-1,2,4-triazin-5-yl)-1,9-diazaspiro[5.5]undecan-2-one], on LTC4S [1] (setting [3]), the pIC50 is 8.15.

As for `O=C1CCCC2(CCN(c3noc([C@H]4C[C@@H]4C(F)(F)F)n3)CC2)N1c1ccc(Cl)c(F)c1` [Example 6b, 1-(4-chloro-3-fluorophenyl)-9-(5-((1S,2S)-2-(trifluoromethyl)cyclopropyl)-1,2,4-oxadiazol-3-yl)-1,9-diazaspiro[5.5]undecan-2-one, or 1-(4-chloro-3-fluorophenyl)-9-(5-((1R,2R)-2-(trifluoromethyl)cyclopropyl)-1,2,4-oxadiazol-3-yl)-1,9-diazaspiro[5.5]undecan-2-one], on LTC4S [1] (setting [3]), the pIC50 was 7.36.

`O=C1CCCC2(CCN(c3cc(N4CC(F)(F)C(F)(F)C4)ncn3)CC2)N1c1ccc(Cl)c(F)c1` [Example 44, 1-(4-chloro-3-fluorophenyl)-9-(6-(3,3,4,4-tetrafluoropyrrolidin-1-yl)pyrimidin-4-yl)-1,9-diazaspiro[5.5]undecan-2-one]: the pIC50 at LTC4S [1] (setting [3]) is 7.89.

With `O=C1CCCC2(CCN(c3nc4ccc(C(F)(F)F)cc4o3)CC2)N1c1ccc(Cl)c(F)c1` [Example 2, 1-(4-chloro-3-fluorophenyl)-9-(6-(trifluoromethyl)benzo[d]oxazol-2-yl)-1,9-diazaspiro[5.5]undecan-2-one], the pIC50 on LTC4S [1] (setting [3]) is 7.44.
